Experimental data from PubChem BioAssay AID330 (DTP/NCI, 2004).
“And” between values parts separate entries of the source, which are not always exact repeats. Equal entries are not always repeated. Toxic doses and inconclusive results are not listed. The calls were made as follows: active = survival T/C of 150% or more; inactive = T/C below 125% in these data.

Test system: P388 leukemia ip, CD2F1 mice, survival T/C
Test: NCI In Vivo Anticancer Drug Screen. Data for tumor model P388 Leukemia (intraperitoneal) in CD2F1 (CDF1) mice
Details: endpoint: median survival time, higher = longer survival
Procedure, shortened: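 Mice carrying the transplanted tumor received test compound or vehicle. Survival was recorded in each group, and the value is the treated-group measurement divided by that of the vehicle-treated control group.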

[1] = dose: 100.0 mg/kg/injection, schedule: Q04DX002 (ip), vehicle: saline with Tween-80
[2] = dose: 200.0 mg/kg/injection, schedule: Q04DX002 (ip), vehicle: saline with Tween-80
[3] = dose: 50.0 mg/kg/injection, schedule: Q01DX009 (ip), vehicle: saline with Tween-80
[4] = dose: 100.0 mg/kg/injection, schedule: Q01DX009 (ip), vehicle: saline with Tween-80
[5] = dose: 200.0 mg/kg/injection, schedule: Q01DX009 (ip), vehicle: saline with Tween-80

Measured: T/C

Clc1nnc(C(Cl)Cl)o1
inactive: dose: 50.0 mg/kg/injection, schedule: Q01DX009 (ip), vehicle: Klucel (hydroxypropylcellulose) (HPC) 114 % of control | dose: 100.0 mg/kg/injection, schedule: Q01DX009 (ip), vehicle: Klucel (hydroxypropylcellulose) (HPC) 106 % of control | dose: 200.0 mg/kg/injection, schedule: Q01DX009 (ip), vehicle: Klucel (hydroxypropylcellulose) (HPC) 99 % of control

COc1ccc(Oc2cc3c[n+](C)ccc3cc2OC)cc1
inactive: dose: 12.5 mg/kg/injection, schedule: Q01DX009 (ip), vehicle: saline 111 % of control | dose: 25.0 mg/kg/injection, schedule: Q01DX009 (ip), vehicle: saline 117 % of control

O=C1NC(N(CCCl)CCCl)=NC1(c1ccccc1)c1ccccc1
inactive: dose: 12.5 mg/kg/injection, schedule: Q04DX002 (ip), vehicle: saline with Tween-80 97 % of control | dose: 25.0 mg/kg/injection, schedule: Q04DX002 (ip), vehicle: saline with Tween-80 94 % of control | dose: 50.0 mg/kg/injection, schedule: Q04DX002 (ip), vehicle: saline with Tween-80 94 % of control | [1] 106 % of control | [2] 96 % of control

NC(=S)N/N=C/c1ccc(C(F)(F)F)cn1
inactive: dose: 3.8 mg/kg/injection, schedule: Q01DX009 (ip), vehicle: Klucel (hydroxypropylcellulose) (HPC) 96 % of control | dose: 5.8 mg/kg/injection, schedule: Q01DX009 (ip), vehicle: Klucel (hydroxypropylcellulose) (HPC) 93 % of control | dose: 6.0 mg/kg/injection, schedule: Q01DX009 (ip), vehicle: Klucel (hydroxypropylcellulose) (HPC) 107 % of control | dose: 8.8 mg/kg/injection, schedule: Q01DX009 (ip), vehicle: Klucel (hydroxypropylcellulose) (HPC) 93 % of control | dose: 8.9 mg/kg/injection, schedule: Q01DX009 (ip), vehicle: Klucel (hydroxypropylcellulose) (HPC) 114 % of control | dose: 13.3 mg/kg/injection, schedule: Q01DX009 (ip), vehicle: Klucel (hydroxypropylcellulose) (HPC) 114 % of control and 93 % of control | dose: 20.0 mg/kg/injection, schedule: Q01DX009 (ip), vehicle: Klucel (hydroxypropylcellulose) (HPC) 101 % of control and 121 % of control | dose: 30.0 mg/kg/injection, schedule: Q01DX009 (ip), vehicle: Klucel (hydroxypropylcellulose) (HPC) 114 % of control

Cc1n[nH]c(=S)nc1C
inactive: dose: 12.5 mg/kg/injection, schedule: Q04DX003 (ip), vehicle: saline with Tween-80 100 % of control | dose: 25.0 mg/kg/injection, schedule: Q04DX003 (ip), vehicle: saline with Tween-80 93 % of control | dose: 50.0 mg/kg/injection, schedule: Q04DX003 (ip), vehicle: saline with Tween-80 100 % of control | dose: 100.0 mg/kg/injection, schedule: Q04DX003 (ip), vehicle: saline with Tween-80 95 % of control

C/C(=N\Nc1ccc([N+](=O)[O-])cc1[N+](=O)[O-])C1CC1
inactive: dose: 25.0 mg/kg/injection, schedule: Q01DX009 (ip), vehicle: saline with Tween-80 117 % of control | [3] 106 % of control | [4] 108 % of control | [5] 109 % of control

CC(=O)Nc1ccc(S(=O)(=O)c2ccc([N+](=O)[O-])s2)cc1
inactive: dose: 25.0 mg/kg/injection, schedule: Q04DX003 (ip), vehicle: Klucel (hydroxypropylcellulose) (HPC) 105 % of control | dose: 50.0 mg/kg/injection, schedule: Q04DX003 (ip), vehicle: Klucel (hydroxypropylcellulose) (HPC) 102 % of control

O=C1CCSC(=O)N1c1ccc(F)cc1
inactive: [1] 100 % of control | [2] 105 % of control | dose: 400.0 mg/kg/injection, schedule: Q04DX002 (ip), vehicle: saline with Tween-80 99 % of control

CCC1CCCN(CCc2c(C3(CO)CCC(CO)c4c(CCN5CCCC(CC)C5)c5ccccc5n43)[nH]c3ccccc23)C1 (stereo unspecified)
inactive: dose: 0.7 mg/kg/injection, schedule: Q01DX009 (ip), vehicle: saline with Tween-80 106 % of control | dose: 1.4 mg/kg/injection, schedule: Q01DX009 (ip), vehicle: saline with Tween-80 102 % of control | dose: 2.8 mg/kg/injection, schedule: Q01DX009 (ip), vehicle: saline with Tween-80 102 % of control

O=C(Cn1ccnc1[N+](=O)[O-])NCCO
inactive: dose: 12.5 mg/kg/injection, schedule: Q01DX009 (ip), vehicle: water 113 % of control | dose: 25.0 mg/kg/injection, schedule: Q01DX009 (ip), vehicle: water 105 % of control | dose: 50.0 mg/kg/injection, schedule: Q01DX009 (ip), vehicle: water 101 % of control | dose: 100.0 mg/kg/injection, schedule: Q01DX009 (ip), vehicle: water 105 % of control | dose: 200.0 mg/kg/injection, schedule: Q01DX009 (ip), vehicle: water 114 % of control

COC(=O)c1c(-c2ccccc2)c(-c2ccccc2)n(-c2ccccc2)c1/N=C/N(C)C
inactive: [3] 97 % of control | [4] 90 % of control | [5] 90 % of control

Cc1ccc(/C=C/C(=O)C(C)CN(C)C)cc1C (stereo unspecified)
inactive: dose: 50.0 mg/kg/injection, schedule: Q01DX005 (ip), vehicle: saline 106 % of control | dose: 100.0 mg/kg/injection, schedule: Q01DX005 (ip), vehicle: saline 109 % of control

O=C(NN(CCN(NC(=O)c1ccccc1)C(=O)c1ccccc1)C(=O)c1ccccc1)c1ccccc1
inactive: dose: 50.0 mg/kg/injection, schedule: Q01DX005 (ip), vehicle: saline with Tween-80 99 % of control | dose: 100.0 mg/kg/injection, schedule: Q01DX005 (ip), vehicle: saline with Tween-80 92 % of control | dose: 200.0 mg/kg/injection, schedule: Q01DX005 (ip), vehicle: saline with Tween-80 96 % of control

OC1(C#Cc2ccccc2)c2ccccc2C(O)(C#Cc2ccccc2)c2cnccc21 (stereo unspecified)
inactive: [3] 95 % of control | [4] 93 % of control | [5] 87 % of control

COc1cc2c(cc1OC)CN1CCc3ccsc3C1C2 (stereo unspecified)
inactive: dose: 50.0 mg/kg/injection, schedule: Q01DX001 (ip), vehicle: Klucel (hydroxypropylcellulose) (HPC) 104 % of control | dose: 100.0 mg/kg/injection, schedule: Q01DX001 (ip), vehicle: Klucel (hydroxypropylcellulose) (HPC) 101 % of control | dose: 200.0 mg/kg/injection, schedule: Q01DX001 (ip), vehicle: Klucel (hydroxypropylcellulose) (HPC) 97 % of control

Cc1cc(N(CCO)CCO)c2ccc3ccccc3c2n1
inactive: [3] 101 % of control | [4] 108 % of control | [5] 97 % of control

Cc1c2oc3c(C)ccc(C(=O)NC(C(=O)NC(C(=O)O)C(C)C)C(C)O)c3nc-2c(C(=O)NC(C(=O)NC(C(=O)O)C(C)C)C(C)O)c(N)c1=O (stereo unspecified)
inactive: dose: 0.05 mg/kg/injection, schedule: Q01DX009 (ip), vehicle: water 100 % of control | dose: 0.1 mg/kg/injection, schedule: Q01DX009 (ip), vehicle: water 97 % of control | dose: 0.2 mg/kg/injection, schedule: Q01DX009 (ip), vehicle: water 94 % of control | dose: 0.4 mg/kg/injection, schedule: Q01DX009 (ip), vehicle: water 99 % of control | dose: 0.8 mg/kg/injection, schedule: Q01DX009 (ip), vehicle: water 97 % of control | dose: 1.6 mg/kg/injection, schedule: Q01DX009 (ip), vehicle: water 102 % of control

O=C(NCc1ccc(S(=O)(=O)F)cc1)Oc1ccc([N+](=O)[O-])cc1
inactive: dose: 7.5 mg/kg/injection, schedule: Q01DX005 (ip), vehicle: saline with Tween-80 102 % of control | dose: 15.0 mg/kg/injection, schedule: Q01DX005 (ip), vehicle: saline with Tween-80 96 % of control | dose: 30.0 mg/kg/injection, schedule: Q01DX005 (ip), vehicle: saline with Tween-80 99 % of control | dose: 60.0 mg/kg/injection, schedule: Q01DX005 (ip), vehicle: saline with Tween-80 99 % of control and 112 % of control
